Values quoted from earlier work in patent US20210213050A1, “Compositions and Methods for the Removal of Extraneous Calcium Hydroxyapatite” (HENRY FORD HEALTH SYSTEM, priority 2018, published 2021).
Blank lines part the entries; values can stand above or below the compound they belong to.

How the values were obtained:
[1] = fold higher than CaHA; proposed mechanism

- CaHA remaining after topical treatment alone (porcine skin, topical SMB alone, histology after approximately 24 hours): approximately 50%
SMILES: O=S([O-])S(=O)(=O)[O-].[Na+].[Na+] [SMB, sodium metabisulfite]

SMILES: O=S([O-])([O-])=S.[Ca+2] [calcium thiosulfate salt, calcium thiosulfate]
- solubility of calcium thiosulfate salt relative to CaHA [1]: 250- to 100,000 fold

SMILES: O=S([O-])([O-])=S.[Na+].[Na+] [sodium thiosulfate]
- ability to dissolve previously injected CaHA microspheres (porcine skin samples injected subdermally with CaHA, intralesional sodium thiosulfate 0.2 mL, 12.5 g/50 mL, alone or with topical sodium metabisulfite): able to dissolve previously injected CaHA microspheres
- visible CaHA microspheres on histologic analysis of the treated area (porcine skin, intralesional sodium thiosulfate, 24 hours later): no visible CaHA microspheres were observed
